In ChEMBL document CHEMBL4725372, “Rational Design of Suprastat: A Novel Selective Histone Deacetylase 6 Inhibitor with the Ability to Potentiate Immunotherapy in Melanoma Models” (J Med Chem, 2020):
Calls of active or inactive are those of the source. The rule behind the calls is not given here.

Columns and labels:
HEK293 [1] = assay: Selectivity index, ratio of IC50 for human HDAC8 expressed in HEK293/T17 cells (unknown origin) to human HDAC6 expressed in HEK293/T17 cells; format: cell-based
Mus musculus [2] = assay: Immunomodulatory activity in C57BL/6 mouse harboring mouse SM1 cells assessed as increase in M1/M2 macrophages ratio at 25 mg/kg, ip dosed 5 days per week before starting 15 mg/kg, ip anti-PD1 immune checkpoint blockade therapy by flow cytometry; format: functional, organism-based; settings: time 5.0 day/week
Mus musculus [3] = assay: Immunomodulatory activity in C57BL/6 mouse harboring mouse SM1 cells assessed as increase in M1/M2 macrophages ratio at 25 mg/kg, ip dosed 5 days per week by flow cytometry; format: functional, organism-based; settings: time 5.0 day/week
Histone deacetylase 11 = target: T1, Histone deacetylase 11 (Homo sapiens, UniProt Q96DB2); assay: Inhibition of human HDAC11 expressed in HEK293/T17 cells pre-incubated for 10 mins before […] addition and measured after 30 mins by fluorescence-based assay; format: cell-based
T1 sequence (Q96DB2 whole entry): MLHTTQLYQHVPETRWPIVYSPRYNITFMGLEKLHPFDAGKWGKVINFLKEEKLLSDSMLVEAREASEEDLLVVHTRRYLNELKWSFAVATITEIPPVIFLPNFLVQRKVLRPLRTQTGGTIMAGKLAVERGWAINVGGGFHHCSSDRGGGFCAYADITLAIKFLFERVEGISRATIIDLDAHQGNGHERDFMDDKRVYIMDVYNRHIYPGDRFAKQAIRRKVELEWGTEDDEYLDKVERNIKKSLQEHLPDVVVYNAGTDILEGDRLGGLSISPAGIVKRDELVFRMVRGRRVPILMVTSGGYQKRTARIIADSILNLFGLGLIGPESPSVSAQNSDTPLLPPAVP

Mus musculus [4] = assay: Immunomodulatory activity in C57BL/6 mouse harboring mouse SM1 cells assessed as reduction in F4/80+ CD206+ pro-tumor M2 macrophages at 25 mg/kg, ip dosed 5 days per week before starting 15 mg/kg, ip anti-PD1 immune checkpoint blockade therapy by flow cytometry; format: functional, organism-based; settings: time 5.0 day/week
[5] = target: T2, Protein deacetylase HDAC6 (Mus musculus) (UniProt Q9Z2V5); assay: Inhibition of HDAC6 in INFgamma and LPS-induced mouse bone marrow derived macrophages assessed as decrease in IL10 gene expression at 5 uM by quantitative PCR analysis; format: tissue-based; settings: Macrophage
T2 sequence (whole entry): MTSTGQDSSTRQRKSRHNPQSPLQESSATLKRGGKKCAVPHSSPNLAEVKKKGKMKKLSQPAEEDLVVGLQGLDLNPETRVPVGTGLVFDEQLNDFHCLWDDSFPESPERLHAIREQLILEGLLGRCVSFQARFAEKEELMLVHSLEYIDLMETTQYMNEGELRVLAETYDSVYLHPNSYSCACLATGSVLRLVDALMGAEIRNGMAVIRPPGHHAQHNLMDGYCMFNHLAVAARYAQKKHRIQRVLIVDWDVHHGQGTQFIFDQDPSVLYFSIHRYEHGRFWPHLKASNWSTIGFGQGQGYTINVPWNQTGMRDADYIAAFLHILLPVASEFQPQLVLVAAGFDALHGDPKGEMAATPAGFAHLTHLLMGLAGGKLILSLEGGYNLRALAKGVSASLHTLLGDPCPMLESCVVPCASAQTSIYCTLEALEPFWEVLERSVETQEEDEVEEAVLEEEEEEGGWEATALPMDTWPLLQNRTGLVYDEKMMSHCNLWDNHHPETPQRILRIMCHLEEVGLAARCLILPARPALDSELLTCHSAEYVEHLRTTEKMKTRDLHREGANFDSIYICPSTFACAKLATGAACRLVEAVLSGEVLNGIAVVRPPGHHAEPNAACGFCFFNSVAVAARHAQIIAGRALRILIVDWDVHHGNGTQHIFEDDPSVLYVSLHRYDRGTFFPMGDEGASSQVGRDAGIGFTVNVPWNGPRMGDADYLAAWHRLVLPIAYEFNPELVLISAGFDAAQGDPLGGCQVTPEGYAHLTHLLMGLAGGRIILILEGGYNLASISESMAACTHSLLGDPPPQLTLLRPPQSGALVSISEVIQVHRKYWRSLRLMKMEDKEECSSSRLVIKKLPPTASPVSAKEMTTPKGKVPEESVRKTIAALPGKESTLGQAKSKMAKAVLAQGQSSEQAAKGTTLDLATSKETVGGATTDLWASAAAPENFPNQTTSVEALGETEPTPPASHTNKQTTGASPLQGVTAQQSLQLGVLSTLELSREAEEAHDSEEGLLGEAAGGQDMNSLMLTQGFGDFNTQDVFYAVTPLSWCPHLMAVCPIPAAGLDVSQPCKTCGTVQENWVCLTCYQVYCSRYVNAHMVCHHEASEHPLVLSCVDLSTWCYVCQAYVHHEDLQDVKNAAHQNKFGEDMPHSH

Mus musculus [6] = assay: Immunomodulatory activity in C57BL/6 mouse harboring mouse SM1 cells assessed as effect on CD4+ T cells at 25 mg/kg, ip dosed 5 days per week before starting 15 mg/kg, ip anti-PD1 immune checkpoint blockade therapy by flow cytometry; format: functional, organism-based; settings: time 5.0 day/week
[7] = Half life in PBS by LC-MS/MS analysis; format: physicochemical
Mus musculus [8] = assay: Immunomodulatory activity in C57BL/6 mouse harboring mouse SM1 cells assessed as increase in CD8+ central memory cells at 25 mg/kg, ip dosed 5 days per week before starting 15 mg/kg, ip anti-PD1 immune checkpoint blockade therapy by flow cytometry; format: functional, organism-based; settings: time 5.0 day/week
HEK293 [9] = assay: Selectivity index, ratio of IC50 for human HDAC3 expressed in HEK293/T17 cells (unknown origin) to human HDAC6 expressed in HEK293/T17 cells; format: cell-based
HEK293 [10] = assay: Selectivity index, ratio of IC50 for human HDAC9 expressed in HEK293/T17 cells (unknown origin) to human HDAC6 expressed in HEK293/T17 cells; format: cell-based
HEK293 [11] = assay: Selectivity index, ratio of IC50 for human HDAC2 expressed in HEK293/T17 cells (unknown origin) to human HDAC6 expressed in HEK293/T17 cells; format: cell-based
HEK293 [12] = assay: Selectivity index, ratio of IC50 for human HDAC5 expressed in HEK293/T17 cells (unknown origin) to human HDAC6 expressed in HEK293/T17 cells; format: cell-based
Mus musculus [13] = assay: Immunomodulatory activity in C57BL/6 mouse harboring mouse SM1 cells assessed as increase in CD8+ effector T-cells and effector memory cells at 25 mg/kg, ip dosed 5 days per week by flow cytometry; format: functional, organism-based; settings: time 5.0 day/week
HEK293 [14] = assay: Selectivity index, ratio of IC50 for human HDAC4 expressed in HEK293/T17 cells (unknown origin) to human HDAC6 expressed in HEK293/T17 cells; format: cell-based
Mus musculus [15] = assay: Immunomodulatory activity in C57BL/6 mouse harboring mouse SM1 cells assessed as effect on immunosuppressive T-regs at 25 mg/kg, ip dosed 5 days per week by flow cytometry; format: functional, organism-based; settings: time 5.0 day/week
[16] = Half life in SGF by LC-MS/MS analysis; format: ADME
Mus musculus [17] = assay: Immunomodulatory activity in C57BL/6 mouse harboring mouse SM1 cells assessed as reduction in natural killer T cells at 25 mg/kg, ip dosed 5 days per week before by flow cytometry; format: functional, organism-based; settings: time 5.0 day/week
[18] = Half life in human plasma at 10 uM by LC-MS/MS analysis; format: ADME, cell-free

Q: For `NCc1ccc(NC(=O)N(CCCCO)Cc2ccc(C(=O)NO)cc2)cc1`, which Ratio IC50 (HEK293 [1]) is on record?
A: 1250

Q: What about the Activity (Mus musculus [2]) of the same compound?
A: Active

Q: And the Activity (Mus musculus [3])?
A: Active

Q: What about the IC50 (Histone deacetylase 11) of the same compound?
A: > 50 µM

Q: And the Activity (Mus musculus [4])?
A: Active

Q: And the inhibition [5]?
A: Active

Q: And the Activity (Mus musculus [6])?
A: inactive

Q: And the half-life [7]?
A: > 24 h

Q: What about the Activity (Mus musculus [8]) of the same compound?
A: Active

Q: What about the Ratio IC50 (HEK293 [9]) of the same compound?
A: 880

Q: What about the Ratio IC50 (HEK293 [10]) of the same compound?
A: 15700

Q: And the Ratio IC50 (HEK293 [11])?
A: 440

Q: What about the Ratio IC50 (HEK293 [12]) of the same compound?
A: 8550

Q: What about the Activity (Mus musculus [13]) of the same compound?
A: Active

Q: And the Ratio IC50 (HEK293 [14])?
A: 20600

Q: And the Activity (Mus musculus [15])?
A: inactive

Q: And the half-life [16]?
A: > 5 h

Q: And the Activity (Mus musculus [17])?
A: Active

Q: What about the half-life at 10 µM [18] of the same compound?
A: > 5 h
